In patent publication US20160152566A1, “TRICYCLIC PYRROLE COMPOUNDS, THEIR PREPARATION AND USE IN MEDICAMENTS” (INSTITUTO BIOMAR, S.A., priority 2013, published 2016):
pIC50: −log10 of the molar value.

Key:
[1] = system: chick chorioallantoic membrane; assay: Chick chorioallantoic membrane (CAM) angiogenesis assay; assay type: in vivo; conditions: 48 h
Description: Fertilised chick eggs were incubated horizontally at 38° C. in a humidified incubator, windowed by day 3 of incubation, and processed by day 8. The tested compound stock solution was added to a 1.2% solution of methylcellulose in water, and 10 μL drops of this solution were allowed to dry on a teflon-coated surface in a laminar flow hood. Then, the methylcellulose discs were implanted on the CAM, the eggs were sealed with adhesive tape and returned to the incubator for 48 h. Negative controls were always made with DMSO mixed with the methylcellulose. After the reincubation, the CAM was examined under a stereomicroscope. The assay was scored as positive when two independent observers reported a significant reduction of vessels in the treated area.

[2] = system: HT1080 MMP-9; assay: Gelatin zymography, HT1080 cells, MMP-9; assay type: cell-based, Human; conditions: 24 h
[3] = system: HT1080 MMP-2; assay: Gelatin zymography, HT1080 cells, MMP-2; assay type: cell-based, Human; conditions: 24 h
Description: BAE or HT1080 cells were grown in 6-well plates at 75% subconfluency in 6-well plates, medium was aspirated, cells were washed twice with phosphate-buffered saline (PBS) and each well received 1.5 ml of DMEM/0.1% BSA containing 200 KIU of Aprotinin/mL. Additionally, some wells received the indicated concentration of AD0157. After 24 h of incubation, conditioned media were collected. To obtain the cell extracts, the cells were washed twice with PBS and harvested by scrapping into 0.5 mL of 0.2% Triton X-100 in 0.1 M Tris/HCl containing 200 KIU aprotinin/mL. Media were centrifuged at 1000×g and 4° C. for 20 min, and used for zymography. Duplicates were used to determine cell number with a Coulter counter.
The gelatinolytic activity of MMP-2 delivered to the conditioned media and cell extracts were detected in gelatinograms. Samples were subjected to non-reducing SDS/PAGE as above but with gelatin (1 mg/mL) added to the 10% resolving gel. After electrophoresis, gels were washed twice with 50 mM Tris/HCl, pH 7.4, supplemented with 2% Triton X-100, and twice with 50 mM Tris/HCl, pH 7.4. […] Then, the gels were stained with Commassie blue R-250 and the bands of gelatinase activity could be detected as non-stained bands in a dark, stained background.
Quantitative analysis of zymograms and gelatinograms was performed with the Scion Image 4.0.3.2 Program.

[4] = system: BAE cells; assay: Capillary tube formation on Matrigel; assay type: cell-based, Bovine; conditions: BAECs, 7 h
Description: (§1) Matrigel (50 μL of about 10.5 mg/mL) at 4° C. was used to coat each well of a 96-well plate and allowed to polymerise at 37° C. for a minimum of 30 min. 5×10^4 BAE cells were added with 200 μL DMEM. Finally, different amounts of the Compound AD0157 were added and incubated at 37° C. in a humidified chamber with 5% CO2. After incubation for 7 h, cultures were observed (40× and 100× magnifications) and photographed with a NIKON inverted microscope DIAPHOT-TMD (Nikon, Tokyo, Japan). Each concentration was tested in duplicate, and two different observers evaluated the inhibition of tube formation. To check the viability of endothelial cells after the treatment with the compounds in this assay, BAE cells were incubated in 96-well plate in the same conditions employed for the tube formation assay. After 7 h, cell viability in comparison to control untreated cells was determined by the addition of MTT essentially as described for the cell growth assay.

[5] = system: BAE cells; assay: Tube formation with Cytodex beads on Matrigel; assay type: cell-based, Bovine; conditions: 48 h
Description: 3×10^4 BAE cells, were cultured with Cytodex beads, and allowed to adhere to them. The beads were added in 200 μL DMEM per well to a 96-well plate that has been previously prepared as follows: different amounts of the compound AD0157 were dispensed in a 96 well plate. Matrigel (50 μL) at 4° C. was used to coat each well of and allowed to polymerise at 37° C. for a minimum of 30 min. After polymerization, the beads carrying the endothelial cells were added to the wells. The plate was incubated at 37° C. in a humidified chamber with 5% CO2. After incubation for 48 h, cultures were observed using an optical microscope. Each concentration was tested in triplicate. Inhibition of tube formation was obtained at 9.3 uM.

[6] = system: endothelial and tumor cells; assay: Hoechst staining of nuclear morphology; assay type: cell-based; conditions: 14 h treatment, endothelial and most types of tumor cells
Description: For Hoechst staining experiments, cells were seeded on 8-well chamber slides and grown to sub-confluence. After treatments for 14 h with the indicated concentrations of the compound in complete medium, cells were washed (PBS) and fixed (formalin solution, Sigma). Chamber slides were stained with Hoechst, mounted (DAKO Cytomation Fluorescent Mounting Medium, DAKO), and observed under a fluorescence microscope (Leica, TCS-NT).

[7] = system: zebrafish intersegmental vessels; assay: Zebrafish embryo intersegmental vessel assay (TGfli1:EGFPy1); assay type: in vivo; conditions: 24 h
Description: Zebrafish embryos were generated by natural pairwise mating and maintained in embryo water at 28.5° C. […] Embryos were manually dechorionated with forceps at 24 h post-fertilization (hpf), they were arrayed in 96-well plate, one embryo per well, and incubated with 100 μl of the indicated concentrations of the tested compounds at 28.5° C. for 24 h. DMSO was used as both carrier of drugs and control. After incubation, fish embryos were anesthetized with tricaine (0.02%), placed on slides and examined under an epifluorescence Nikon microscope equipped with DS-L1 Nikon digital camera. Phenotypic changes were evaluated by two different observers.

[8] = system: BAE cells; assay: MTT dye reduction cell growth assay, BAE cells; assay type: cell-based, Bovine; conditions: Bos taurus, 72 h, subconfluent BAE cells stimulated with 10% FBS, 3 days, read-out: IC50, growth of cultured BAE cells
Description: The 3-(4,5-dimethylthiazol-2-yl)-2,5 diphenyltetrazolium bromide (MIT; Sigma Chemical Co., St. Louis, Mo.) dye reduction assay in 96-well microplates was used. The assay is dependent on the reduction of MTT by mitochondrial dehydrogenases of viable cell to a blue formazan product, which can be measured spectrophotometrically.
3×10^3 BAE cells in a total volume of 100 μl of complete medium were incubated in each well with serial dilutions of the compound AD0157 obtained as explained above. After 3 days of incubation in the dark (37° C., 5% CO2 in a humid atmosphere), 10 μl of MTT (5 mg/ml in PBS) was added to each well and the plate was incubated for further 4 h (37° C.). The resulting formazan was dissolved in 150 μl of 0.04 N HCl-2 propanol and read at 550 nm. All determinations were carried out in triplicate, independent experiments. IC50 values were calculated as those concentrations of AD0157 yielding 50% cell survival, taking the values obtained for control as 100%.

[9] = system: BAE cells; assay: Viability (MTT) under tube formation conditions; assay type: cell-based, Bovine; conditions: 7 h, at the concentrations used to inhibit differentiation
Description: as §1

C/C=C/C(=O)C1(O)CC2CC(C(=O)O)CC(C)C2C1C(=O)C1=C(/C=C/C)C(=O)C2(Cl)C3(CCCCCC)C(=O)NC(=O)C23C1=O (stereo not shown) [AD0157]
% Inhibition ([1]; 0.1 nmol/CAM): 20%
Positive/total ([1]; 0.1 nmol/CAM): 1/5
% Inhibition ([1]; 0.5 nmol/CAM): 83%
Positive/total ([1]; 0.5 nmol/CAM): 5/6
% Inhibition ([1]; 1 nmol/CAM): 100%
Positive/total ([1]; 1 nmol/CAM): 6/6
% Inhibition ([1]; 5 nmol/CAM): 100%
Positive/total ([1]; 5 nmol/CAM): 6/6
MMP-9 levels in HT1080 conditioned media and cellular extracts [2]: no effect
MMP-2 levels in HT1080 conditioned media and cellular extracts [3]: no effect
Concentration giving complete inhibition of endothelial morphogenesis on Matrigel [4]: 5 µM
Concentration giving partial inhibition of endothelial morphogenesis on Matrigel [4]: 1 µM
Concentration giving inhibition of tube formation [5]: 9.3 µM
Concentration inducing chromatin condensation [6]: above 5 μM
% Inhibition ([7]; 5 μM): 25%
Positive/total ([7]; 5 μM): 5/20
% Inhibition ([7]; 10 μM): 48%
Positive/total ([7]; 10 μM): 12/25
% Inhibition ([7]; 25 μM): 85%
Positive/total ([7]; 25 μM): 17/20
pIC50 [8]: 4.96
Viability of endothelial cells [9]: did not affect the viability
